# Patent US20130072527A1, “METHODS OF USING SUSTAINED RELEASE AMINOPYRIDINE COMPOSITIONS” (Acorda Therapeutics, Inc., priority 2008, published 2013)
# Like-named read-outs stand apart in the source and are kept apart here.
# Columns and labels:
# [1] = 14C-4-aminopyridine single oral dose in rats (HWI 6379-101); conditions: for tissue-to-blood ratio: rat, oral dose; for AUC / Tmax / t1/2: rats, 1 mg/kg single oral
# Protocol: Studies were performed in rats and dogs using ^14C-labeled 4-aminopyridine (1 mg/kg) given as a single oral gavage dose in solution.
# In a single-dose study, rats were administered ^14C-labeled 4-aminopyridine (1 mg/kg) p.o. Three animals per time point were sacrificed 1, 3, 8, and 24 hours post-dose. Blood was collected and tissues were excised for determination of radioactivity.
# [2] = 14C-4-aminopyridine single oral dose in dogs (HWI 6379-102); type: in vivo; conditions: for AUC / Tmax / t1/2: dogs, 1 mg/kg single oral
# From the text: In both species, 14C 4-aminopyridine was rapidly absorbed.
# [3] = In situ absorption study (stomach, small intestine); type: in vivo
# From the text: Absorption. 4-Aminopyridine is rapidly absorbed following oral administration.
# [4] = Single- and repeated-dose toxicity studies; type: in vivo; conditions: orally administered; most often
# Protocol: Toxicology. In single- and repeated-dose toxicity studies, the dosing regimen greatly affected the rate of mortality and incidence of clinical signs in all species studied (with the possible exception of the mouse). In general, higher mortality rates and greater incidences of adverse clinical signs were noted when 4-aminopyridine was administered in a single large dose as compared to when the same total dose was given as two, three, or four equally divided sub-doses. Toxic responses to orally administered 4-aminopyridine were rapid in onset, most often occurring within the first 2 hours post-dose.
# These clinical signs were not unexpected and represent exaggerated pharmacology of 4-aminopyridine.
# [5] = tested on: patients with multiple sclerosis; assay: Phase 3 study MS-F204: Timed 25 Foot Walk (Timed Walk Response); type: in vivo, human
# [6] = tested on: patients with multiple sclerosis; assay: Phase 3 study MS-F204: leg strength (LEMMT); type: in vivo, human
# From the text: (§1) The period of efficacy evaluation (visits 2-6) included 8 weeks of twice daily treatment. An additional week was incorporated to allow pharmacodynamic evaluation at Visit 7, which was not part of the primary endpoint. (See FIG. 1 for study design). In particular, this study is a double-blind, placebo-controlled, parallel group, 13-week study (one week post screening, two weeks of single-blind placebo run-in, eight weeks of double-blind treatment, and two weeks of follow-up) in patients with multiple sclerosis. […] One of the goals of this study is to confirm the primary outcome measure in a second prospective study, and equal randomization is the most efficient way to test this outcome. […] In order to ensure at least 184 patients complete the study, approximately 100 patients were randomized to each group.
# Secondary Outcome. The prospectively defined secondary outcome was leg strength, measured by Lower Extremity Manual Muscle Test (LEMMT) in 8 muscle groups, comparing the treated Timed Walk Responders and Timed Walk Non-Responders with placebo-treated patients.
# […] (p-values compared to placebo). […] (Analyzed by t-tests of the least-squares means using the mean square error via an ANOVA model with effects for responder analysis group and center.)
# [7] = tested on: patients with multiple sclerosis; assay: Phase 3 study MS-F204: other measures (MSWS-12, SGI, CGI, Ashworth score); type: in vivo, human
# From the text: as §1
# Other measures. A number of other measures, not powered for statistical comparison, were included for integrated analyses across studies: MSWS-12, SGI, CGI, Ashworth score.
# Spasticity may be assessed in addition to walking speed and leg strength. When assessed, spasticity is evaluated at the screening visit and each subsequent visit using the Ashworth Spasticity Score. Preferably, the evaluation is prior to the LEMMT and includes evaluation of six lower extremity muscle groups; knee flexors, knee extensors and hip adductors on both the right and left side of the body. […]
# [8] = tested on: normal adult myelinated axons; conditions: Shi and Blight, 1997, cited from earlier work
# [9] = tested on: chronically injured spinal cord; conditions: (941 ng/mL); Shi et al., 1997; cited from earlier work
# [10] = Raoof et al., 1997, cited from earlier work
# [11] = Plasma protein binding of fampridine
# [12] = Single-dose pharmacokinetics in healthy volunteers; conditions: administered orally
# [13] = Rat i.v. and p.o. pharmacokinetics 2 mg/kg (M 2001-03); conditions: for Vdss: single p.o. dose 2 mg/kg; for bioavailability: rat, plasma, oral, 2 mg/kg
# [14] = Oral administration of non-sustained release 4-aminopyridine in animals
# [15] = one hour post-dose, 1 mg/kg p.o.
compound,measurement,setting,value
^14C-4-Aminopyridine,radioactive dose in the carcass,"[1]; 3 hours post-dose, 1 mg/kg p.o.",15.4%
same,tissue-to-blood ratio,[1]; cerebellum,1.48
same,tissue-to-blood ratio,[1]; cerebrum,3.07
same,dose accounted for in total (radioactivity),[1]; [15],58.3%
same,"radioactivity in blood, % of dose",[1]; [15],0.7%
same,"radioactivity in kidney, % of dose",[1]; [15],1.6%
same,"radioactivity in liver, % of dose",[1]; [15],2.6%
same,radioactivity in the carcass,[1]; [15],51%
same,AUC,[1]; females,0.506 ± 0.0633 µg·h/mL
same,Tmax,[1]; females,0.5 h
same,t1/2,[1]; females,1.4 ± 0.17 h
same,AUC,[1]; males,0.498 ± 0.0176 µg·h/mL
same,Tmax,[1]; males,1.0 h
same,t1/2,[1]; males,1.1 ± 0.04 h
same,AUC,[2]; females,1.92 ± 0.150 µg·h/mL
same,Tmax,[2]; females,0.8 ± 0.3 h
same,t1/2,[2]; females,1.8 ± 0.04 h
same,AUC,[2]; males,2.03 ± 0.406 µg·h/mL
same,Tmax,[2]; males,1.0 ± 0 h
same,t1/2,[2]; males,2.1 ± 0.14 h
same,Cmax and AUC in the dog relative to the rat,[2]; doses equal on a mg/kg basis (1 mg/kg oral),approximately four-fold higher
Nc1ccncc1 [4-aminopyridine],half-life,[3]; small intestine,0.67 h
same,half-life,[3]; stomach,1.81 h
same,elimination half-life,[1]; blood,1.21 h
same,elimination half-life,[1]; cerebellum,1.24 h
same,elimination half-life,[1]; cerebrum,1.63 h
same,onset of toxic responses post-dose,[4],≤ 2 h
same,Timed Walk response rate,"[5]; 10 mg b.i.d., with concomitant interferons, natalizumab, or glatiramer acetate (n=70)",42.9%
same,Timed Walk response rate,"[5]; 10 mg b.i.d., without concomitant immunomodulators (n=49)",42.9%
same,improvement in walking speed from baseline,"[5]; Timed Walk Responders, throughout the treatment period",approximately 25%
same,proportion of MS patients with consistently improved walking speed (Timed Walk Response),"[5]; eight weeks of treatment, 10 mg b.i.d.",42%
same,leg strength (LEMMT) versus placebo treated or Timed Walk Responder groups,[6]; Fampridine-treated Timed Walk Non-Responders,not significantly different
same,leg strength (LEMMT) versus placebo-treated patients,"[6]; Timed Walk Responders, p=0.028",significantly improved
same,"MSWS-12 score, SGI, and CGI",[7]; among Timed Walk Responders but not Timed Walk Non-Responders,improvement
same,Ashworth Score compared to the placebo treated group,[7]; significant in an unplanned analysis,improvement
same,concentration below which the action potential shows little or no sensitivity,[8]; (9.4 μg/mL),below 100 μM
same,concentration causing gradual depolarization of the axon resting potential,[8]; (94.1 μg/mL),above 1 mM
same,most effective concentration,[9],about 10 μM
same,"regional apparent permeability coefficient (papp×10^−6, cm/sec)",[10]; large intestine,2.9 ×10^−6 cm/sec
same,"regional apparent permeability coefficient (papp×10^−6, cm/sec)",[10]; upper small intestine,22.7 ×10^−6 cm/sec
same,fraction unbound,[11],0.97 to 0.99
same,absorption from the gastrointestinal tract,[12],completely absorbed
same,Vdss,[13]; female rats,947.5 mL
same,bioavailability,[13]; female,~55%
same,Vdss,[13]; male rats,1094.4 mL
same,bioavailability,[13]; male,~66.5%
same,Vdss difference between males and females adjusted for body weight,"[13]; rats, 2 mg/kg p.o.",2%
same,Vdss lower in females than in males,"[13]; rats, 2 mg/kg p.o., not statistically significant",13%
same,peak plasma concentrations lower in females than in males,"[13]; rats, oral administration",38%
same,time of peak plasma concentrations after dosing,[14],≤ 1 h
